Molecules are shown by their SMILES. Where only a bound is given, the exact number is not on record here.

One test addresses T1, PI3Kα kinase (Homo sapiens, UniProt P42336).
T1 construct: purchased Invitrogen PV4788
As to the kind of experiment: PI3Ka Transcreener ADP assay (fluorescence polarization). Type of test: biochemical. The conditions noted are these: 10 μM ATP, 30 μmol/L lipid substrate; read-out: IC50, inhibition of PI3Kα kinase. The essentials: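 Transcreener ADP FP assay with PI3Kα (0.2 ng/μL), 30 μmol/L lipid substrate (PIP2) and 10 μM ATP (final) in HEPES pH 7.5 buffer with MgCl2, 0.03% CHAPS, 2% DMSO. 60 min reaction at room temperature, then ADP detection 1.5 h (ex 610/em 670 nm). ADP from standard curve; IC50 fitted.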

A further test addresses T2, mTOR kinase (Homo sapiens, UniProt P42345).
T2 construct: purchased Invitrogen PV4753
The experiment in a line: mTOR LanthaScreen TR-FRET assay. The format is biochemical. The settings on record: 10 μmol/L ATP, GFP-4EBP1 substrate; read-out: IC50, inhibition of mTOR. The protocol: Compounds are tested using LanthaScreen TR-FRET Assay. The kinase reaction is completed in 384-well black plate (Corning, Cat. 3676). The final conditions for kinase assay are: 10 μmol/L of ATP, 0.2 ng/μL of mTOR kinase, 0.4 μmol/L of GFP-4EBP1 substrate and assay buffer (50 mmol/L of HEPES, pH 7.5, 0.01% of Tween 20, 1 mmol/L of EGTA, 10 mmol/L of MnCl2, 2 mmol/L of DTT and 1% DMSO).
To each well, 2.5 μL of test compounds in 4% DMSO and 2.5 μL of 0.8 ng/μL mTOR kinase (Invitrogen, PV4753) diluted in assay buffer are added. The reaction is initiated by the addition of 5 μL mixture of 0.8 μmol/L GFP-4EBP1 Substrate (Invitorgen, PV4759) and 20 μmol/L ATP mixtures. The mixture is incubated at room temperature for 60 minutes. 10 μL of 20 mmol/L EDTA and 4 nmol/L Tb-anti-p4EBP1 [pThr46] antibody (Invitrogen, PV4755) diluted in TR-FRET dilution buffer are added and incubated for an additional 1 hour. The plate is then read in a BioTek Synergy2 Reader at excitation of 340 nm and emission of 490 nm and 528 nm.
The inhibition of test compound is calculated based on the ratio of 528 nm/490 nm. IC50 of test compound is obtained using XLfit 2.0 software.

T2 sequence (P42345 1360-2549 limits assumed): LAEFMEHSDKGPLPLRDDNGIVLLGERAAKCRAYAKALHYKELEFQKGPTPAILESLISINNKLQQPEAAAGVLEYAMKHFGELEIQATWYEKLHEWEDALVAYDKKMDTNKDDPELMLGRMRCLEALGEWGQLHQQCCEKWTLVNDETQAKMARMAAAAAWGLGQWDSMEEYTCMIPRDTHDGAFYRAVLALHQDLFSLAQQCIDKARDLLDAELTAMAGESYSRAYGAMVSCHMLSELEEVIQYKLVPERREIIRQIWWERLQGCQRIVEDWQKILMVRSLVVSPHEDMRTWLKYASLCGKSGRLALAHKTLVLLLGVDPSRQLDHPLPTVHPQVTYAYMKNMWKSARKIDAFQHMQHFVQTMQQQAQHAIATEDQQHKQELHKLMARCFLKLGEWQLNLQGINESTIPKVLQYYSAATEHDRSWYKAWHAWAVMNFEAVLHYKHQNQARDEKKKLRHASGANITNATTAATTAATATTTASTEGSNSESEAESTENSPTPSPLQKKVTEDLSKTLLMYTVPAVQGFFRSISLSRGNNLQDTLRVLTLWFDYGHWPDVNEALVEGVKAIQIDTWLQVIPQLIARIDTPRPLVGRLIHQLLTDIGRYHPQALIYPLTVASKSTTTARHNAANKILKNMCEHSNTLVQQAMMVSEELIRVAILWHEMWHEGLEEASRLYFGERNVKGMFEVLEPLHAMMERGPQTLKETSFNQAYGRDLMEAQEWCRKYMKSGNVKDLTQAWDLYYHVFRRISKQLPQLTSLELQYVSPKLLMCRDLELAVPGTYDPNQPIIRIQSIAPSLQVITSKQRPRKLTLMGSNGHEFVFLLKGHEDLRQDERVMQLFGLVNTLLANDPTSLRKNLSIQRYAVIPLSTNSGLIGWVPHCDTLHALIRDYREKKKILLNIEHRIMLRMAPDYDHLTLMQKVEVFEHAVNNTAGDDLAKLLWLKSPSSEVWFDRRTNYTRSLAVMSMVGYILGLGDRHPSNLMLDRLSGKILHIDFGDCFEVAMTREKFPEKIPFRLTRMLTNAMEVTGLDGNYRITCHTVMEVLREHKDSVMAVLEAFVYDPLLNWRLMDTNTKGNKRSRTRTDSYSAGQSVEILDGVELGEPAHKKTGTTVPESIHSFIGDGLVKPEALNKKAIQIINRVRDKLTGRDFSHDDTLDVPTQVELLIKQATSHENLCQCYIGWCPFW
T1 sequence (P42336 whole entry): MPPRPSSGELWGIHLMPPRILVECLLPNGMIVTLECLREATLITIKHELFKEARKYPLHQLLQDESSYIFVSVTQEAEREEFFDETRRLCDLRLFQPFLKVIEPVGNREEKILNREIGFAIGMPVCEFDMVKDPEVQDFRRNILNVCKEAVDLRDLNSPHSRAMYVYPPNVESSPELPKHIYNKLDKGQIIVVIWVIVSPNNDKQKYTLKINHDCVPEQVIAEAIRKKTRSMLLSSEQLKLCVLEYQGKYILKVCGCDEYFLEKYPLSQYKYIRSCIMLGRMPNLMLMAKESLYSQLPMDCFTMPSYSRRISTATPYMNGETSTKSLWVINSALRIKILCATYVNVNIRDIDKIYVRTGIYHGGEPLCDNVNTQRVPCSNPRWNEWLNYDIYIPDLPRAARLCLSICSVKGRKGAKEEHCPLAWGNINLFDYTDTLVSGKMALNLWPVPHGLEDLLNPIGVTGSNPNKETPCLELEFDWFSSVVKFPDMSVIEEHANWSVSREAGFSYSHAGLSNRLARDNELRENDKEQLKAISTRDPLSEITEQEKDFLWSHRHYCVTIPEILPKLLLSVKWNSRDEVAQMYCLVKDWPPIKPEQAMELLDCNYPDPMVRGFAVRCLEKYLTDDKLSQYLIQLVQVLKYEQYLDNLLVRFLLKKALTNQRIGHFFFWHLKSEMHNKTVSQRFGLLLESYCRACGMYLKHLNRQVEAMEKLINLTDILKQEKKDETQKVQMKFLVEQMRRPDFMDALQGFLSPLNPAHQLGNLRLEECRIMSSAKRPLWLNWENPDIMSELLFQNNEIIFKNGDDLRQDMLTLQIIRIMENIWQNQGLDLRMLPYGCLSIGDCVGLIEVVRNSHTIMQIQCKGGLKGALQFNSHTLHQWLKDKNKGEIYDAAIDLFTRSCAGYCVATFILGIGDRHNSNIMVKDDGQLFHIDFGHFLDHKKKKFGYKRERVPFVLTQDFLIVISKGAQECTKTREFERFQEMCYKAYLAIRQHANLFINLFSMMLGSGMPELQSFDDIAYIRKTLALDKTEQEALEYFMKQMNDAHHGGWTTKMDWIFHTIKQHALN
T1 sequence (P27986 whole entry partner): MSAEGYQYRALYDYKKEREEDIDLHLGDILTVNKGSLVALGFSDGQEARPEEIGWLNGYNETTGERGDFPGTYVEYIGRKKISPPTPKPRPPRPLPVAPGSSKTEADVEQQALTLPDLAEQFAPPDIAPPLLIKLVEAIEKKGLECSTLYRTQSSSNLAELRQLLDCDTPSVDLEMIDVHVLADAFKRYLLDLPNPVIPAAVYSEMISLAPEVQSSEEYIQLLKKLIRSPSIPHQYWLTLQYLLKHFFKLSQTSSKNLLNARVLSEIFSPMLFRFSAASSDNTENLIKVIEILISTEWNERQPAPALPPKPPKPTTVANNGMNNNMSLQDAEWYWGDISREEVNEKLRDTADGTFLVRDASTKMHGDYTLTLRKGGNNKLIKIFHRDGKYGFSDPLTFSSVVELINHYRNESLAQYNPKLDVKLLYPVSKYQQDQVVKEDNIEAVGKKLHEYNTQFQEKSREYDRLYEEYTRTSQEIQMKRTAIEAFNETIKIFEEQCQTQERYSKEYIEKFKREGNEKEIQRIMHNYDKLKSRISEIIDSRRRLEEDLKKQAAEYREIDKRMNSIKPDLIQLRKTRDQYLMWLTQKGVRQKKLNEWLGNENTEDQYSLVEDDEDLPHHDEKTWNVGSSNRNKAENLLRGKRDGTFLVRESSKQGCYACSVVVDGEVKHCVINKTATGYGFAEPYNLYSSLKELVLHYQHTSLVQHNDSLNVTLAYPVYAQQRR

As to `CC(C)(C#N)c1ccc(-c2nnc3cnc4ccc(-c5cnc(N)c(C(F)(F)F)c5)cc4n23)cc1` [Compound 49, 2-(4-(8-(6-amino-5-(trifluoromethyl)pyridin-3-yl)-[1,2,4]triazolo[4,3-a]quinoxalin-1-yl)phenyl)-2-methylpropanenitrile], the IC50 at PI3Kα kinase and on mTOR kinase was under 100 nM in each case.
`COc1ncc(-c2ccc3ncc4nc(C)n(C)c4c3n2)cc1NS(=O)(=O)C(F)(F)F` [Compound 166]: the concentration for half-maximal inhibition (IC50) at PI3Kα kinase and on mTOR kinase was under 100 nM each time.
With `COc1ncc(-c2ccc3ncc4nnc(OC)n4c3c2)cc1NS(=O)(=O)c1ccc(F)cc1F` [Compound 157], the IC50 at PI3Kα kinase and at mTOR kinase was under 100 nM throughout.
In the case of `COc1ncc(-c2ccc3ncc4nc(C)n(C)c4c3n2)cc1NS(=O)(=O)c1ccc(F)cc1F` [Compound 151], the IC50 on PI3Kα kinase and at mTOR kinase was under 100 nM in each case.
Consider `Cc1cc(-c2ccc3ncc4nnc(-c5ccc(C(C)(C)C#N)cc5)n4c3c2)cnc1N` [Compound 58], for which the IC50 on PI3Kα kinase and at mTOR kinase was under 100 nM each time.
For `Cc1nc2cnc3ccc(-c4cnc(N)c(C(F)(F)F)c4)nc3c2n1C1CCN(C(=O)C2CC2)CC1` [Compound 119, (4-(8-(6-amino-5-(trifluoromethyl)pyridine-3yl)-2-methyl-1H-imidazo[4,5-c][1,5]naphthyridin-1-yl)piperidin-1-yl)(cyclopropyl)methanone], the IC50 on PI3Kα kinase and on mTOR kinase was under 100 nM throughout.
Regarding `CC(C)(C#N)c1ccc(-c2nnc3cnc4ccc(-c5cnc6[nH]ncc6c5)cc4n23)cc1` [Compound 53], the IC50 at PI3Kα kinase and on mTOR kinase was under 100 nM throughout.
Regarding `COCC(=O)N1CCC(n2nnc3cnc4ccc(-c5cnc(N)c(C(F)(F)F)c5)nc4c32)CC1` [Compound 7], the IC50 on PI3Kα kinase and at mTOR kinase was under 100 nM each time.
As to `COc1ncc(-c2ccc3ncc4nnc(C)n4c3c2)cc1NS(=O)(=O)c1ccccc1F` [Compound 180], the IC50 on PI3Kα kinase and on mTOR kinase was under 100 nM in each case.
`C[C@H](O)C(=O)N1CCC(n2nnc3cnc4ccc(-c5cnc(N)c(C(F)(F)F)c5)nc4c32)CC1` [Compound 1, (S)-1-(4-(8-(6-amino-5-(trifluoromethyl)pyridin-3-yl)-1H-[1,2,3]triazolo[4,5-c][1,5]naphthyridin-1-yl)piperidin-1-yl)-2-hydroxypropan-1-one]: the IC50 at PI3Kα kinase and on mTOR kinase was under 100 nM in each case.
For `Cn1c(=O)n(-c2ccc(C(C)(C)C#N)nc2)c2c3cc(-c4cnc(N)nc4)ccc3ncc21` [Compound 42], the IC50 at PI3Kα kinase and on mTOR kinase was under 100 nM in each case.
For `COc1ncc(-c2ccc3ncc4nn(C)c(=O)n4c3c2)cc1NS(=O)(=O)c1ccc(F)cc1F` [Compound 148], the IC50 on PI3Kα kinase and on mTOR kinase was under 100 nM throughout.
With `COc1ncc(-c2ccc3ncc4nnc(CN(C)C)n4c3c2)cc1NS(=O)(=O)c1ccc(F)cc1F` [Compound 158], the IC50 on PI3Kα kinase and on mTOR kinase was under 100 nM each time.
`COc1ncc(-c2ccc3ncc4nnn(C)c4c3n2)cc1NS(=O)(=O)c1ccc(F)cc1F` [Compound 154]: the IC50 on PI3Kα kinase and on mTOR kinase was under 100 nM throughout.
Take `CCC(=O)N1CCC(n2c(C)nc3cnc4ccc(-c5cnc(N)c(C(F)(F)F)c5)nc4c32)CC1` [Compound 120]: the IC50 at PI3Kα kinase and on mTOR kinase was under 100 nM throughout.
`Nc1ncc(-c2ccc3ncc4ncn(C5CCOCC5)c4c3n2)cc1C(F)(F)F` [Compound 106]: the IC50 on PI3Kα kinase and on mTOR kinase was under 100 nM each time.
In the case of `CC(C)(C#N)c1ccc(-c2nnc3cnc4ccc(-c5ccc(N)nc5)cc4n23)cc1` [Compound 50], the IC50 at PI3Kα kinase and on mTOR kinase was under 100 nM each time.
For the compound `Nc1ncc(-c2ccc3ncc4nnn(C5CCN(C(=O)CO)CC5)c4c3n2)cc1C(F)(F)F` [Compound 25], the IC50 on PI3Kα kinase and at mTOR kinase was under 100 nM throughout.
With `Nc1ncc(-c2ccc3ncc4nnn(C5CCN(C(=O)C6CC6)CC5)c4c3n2)cc1C(F)(F)F` [Compound 9], the IC50 at PI3Kα kinase and on mTOR kinase was under 100 nM each time.
For `COc1ncc(-c2ccc3ncc4nnc(CN(C)C)n4c3c2)cc1NS(=O)(=O)C(F)(F)F` [Compound 165], the IC50 on PI3Kα kinase and at mTOR kinase was under 100 nM each time.
Consider `CCOc1cc(-c2ccc3ncc4nnc(-c5ccc(C(C)(C)C#N)cc5)n4c3c2)cnc1N` [Compound 75], for which the IC50 on PI3Kα kinase and on mTOR kinase was under 100 nM each time.
As to `CCC(=O)N1CCC(n2nnc3cnc4ccc(-c5cnc(N)c(C(F)(F)F)c5)nc4c32)CC1` [Compound 6], the IC50 at PI3Kα kinase and at mTOR kinase was under 100 nM each time.
For `COc1ncc(-c2ccc3ncc4nnc(C)n4c3c2)cc1NS(=O)(=O)c1ccc(F)cc1F` [Compound 147, 2,4-difluoro-N-(2-methoxy-5-(1-methyl-[1,2,4]triazolo[4,3-a]quinoxalin-8-yl)pyridin-3-yl)benzenesulfonamide], the IC50 on PI3Kα kinase and at mTOR kinase was under 100 nM throughout.
In the case of `CN(C)C(=O)CN1CCC(n2cnc3cnc4ccc(-c5cnc(N)c(C(F)(F)F)c5)nc4c32)CC1` [Compound 98], the IC50 on PI3Kα kinase and at mTOR kinase was under 100 nM in each case.
For the compound `CC(C)(C#N)c1ccc(-n2nnc3cnc4ccc(-c5cnc(N)c(C(F)(F)F)c5)nc4c32)cn1` [Compound 16], the IC50 on PI3Kα kinase and on mTOR kinase was under 100 nM throughout.
As to `CC(C)(C#N)c1ccc(-c2nnc3cnc4ccc(-c5ccc6nc(N)sc6c5)cc4n23)cc1` [Compound 52], the IC50 on PI3Kα kinase and on mTOR kinase was under 100 nM throughout.
Turning to `COc1ncc(-c2ccc3ncc4nnc(C)n4c3c2)cc1NS(=O)(=O)c1ccccc1` [Compound 181], the IC50 at PI3Kα kinase and on mTOR kinase was under 100 nM in each case.
For the compound `CC1(CN2CCC(n3cnc4cnc5ccc(-c6cnc(N)c(C(F)(F)F)c6)nc5c43)CC2)COC1` [Compound 105], the IC50 at PI3Kα kinase and on mTOR kinase was under 100 nM each time.
For the compound `CCn1nc2cnc3ccc(-c4cnc(OC)c(NS(=O)(=O)c5ccc(F)cc5F)c4)cc3n2c1=O` [Compound 149], the IC50 at PI3Kα kinase and on mTOR kinase was under 100 nM throughout.
As to `Nc1ncc(-c2ccc3ncc4nnn(-c5ccc6[nH]ncc6c5)c4c3c2)cc1C(F)(F)F` [Compound 14], the IC50 at PI3Kα kinase and on mTOR kinase was under 100 nM throughout.
As for `COc1ncc(-c2ccc3ncc4nnc(-c5ccc(F)cc5)n4c3c2)cc1NS(C)(=O)=O` [Compound 152], the IC50 on PI3Kα kinase and at mTOR kinase was under 100 nM throughout.
As to `N#CC1(C(=O)N2CCC(n3nnc4cnc5ccc(-c6cnc(N)c(C(F)(F)F)c6)nc5c43)CC2)CC1` [Compound 33], the IC50 at PI3Kα kinase and on mTOR kinase was under 100 nM throughout.
On to `CCNC(=O)N1CCC(n2nnc3cnc4ccc(-c5cnc(N)c(C(F)(F)F)c5)nc4c32)CC1` [Compound 45], for which the IC50 at PI3Kα kinase and at mTOR kinase was under 100 nM each time.
Regarding `COc1ncc(-c2ccc3ncc4ncn(CCN(C)C)c4c3n2)cc1NS(=O)(=O)C(F)(F)F` [Compound 178], the IC50 at PI3Kα kinase and on mTOR kinase was under 100 nM each time.
As to `CC(C)(C#N)c1ccc(-c2nnc3cnc4ccc(-c5cnc(N)c(F)c5)cc4n23)cc1` [Compound 66], the IC50 on PI3Kα kinase and on mTOR kinase was under 100 nM each time.
On to `COc1cc(-c2ccc3ncc4nnc(-c5ccc(C(C)(C)C#N)cc5)n4c3c2)cnc1N` [Compound 72], for which the IC50 at PI3Kα kinase and on mTOR kinase was under 100 nM in each case.
For the compound `CC(C)C(=O)N1CCC(n2nnc3cnc4ccc(-c5cnc(N)c(C(F)(F)F)c5)nc4c32)CC1` [Compound 30, 1-(4-(8-(6-amino-5-(trifluoromethyl)pyridin-3-yl)-1H-[1,2,3]triazolo[4,5-c][1,5]naphthyridin-1-yl)piperidin-1-yl)-2-methylpropan-1-one], the IC50 at PI3Kα kinase and at mTOR kinase was under 100 nM in each case.
Take `CC(=O)N1CCC(n2cnc3cnc4ccc(-c5cnc(N)c(C(F)(F)F)c5)nc4c32)CC1` [Compound 102]: the IC50 on PI3Kα kinase and at mTOR kinase was under 100 nM throughout.
Regarding `CC(C)(C#N)c1ccc(-c2nnc3cnc4ccc(-c5ccc6nc(N)sc6c5)cc4n23)cn1` [Compound 56], the IC50 at PI3Kα kinase and on mTOR kinase was under 100 nM each time.
Regarding `Cc1nc2cnc3ccc(-c4cnc(N)c(C(F)(F)F)c4)nc3c2n1C1CCN(CC(=O)N(C)C)CC1` [Compound 123], the IC50 on PI3Kα kinase and on mTOR kinase was under 100 nM in each case.
In the case of `Nc1ncc(-c2ccc3ncc4nnn(Cc5ccc(F)cc5)c4c3c2)cn1` [Compound 12], the IC50 at PI3Kα kinase and on mTOR kinase was under 100 nM each time.

The record behind these values is patent US9181264B2, “Fused heteroaryls and their uses” (Hutchison MediPharma Limited, priority 2011, dated 2015).
